According to US7754741B2, “Pyridine derivatives as fungicidal compounds” (Bayer Cropscience S.A., priority 2003, dated 2010):

What was measured:
[1] = test system: Alternaria brassicae; assay: In vivo test on Alternaria brassicae (leaf spot of crucifers); details: Alternaria brassicae; dose 330 ppm; radish plants sprayed 24 hours before contamination; grading 6 to 7 days after contamination vs control plants; read-out: protection (good (at least 50%) to total)
Procedure: In Vivo Test on Alternaria brassicae (Leaf Spot of crucifers)
(§1) The active ingredient tested is prepared by potter homogenisation in a concentrated suspension type formulation at 100 g/l. This suspension is then diluted with water to obtain the desired active material concentration.
Radish plants (Pernot variety) in starter cups, sown on a 50/50 peat soil-pozzolana substrate and grown at 18-20° C., are treated at the cotyledon stage by spraying with the aqueous suspension described above.
Plants, used as controls, are treated with an aqueous solution not containing the active material.
After 24 hours, the plants are contaminated by spraying them with an aqueous suspension of Alternaria brassicae spores (40,000 spores per cm^3). The spores are collected from a 12-13-day-old culture.
The contaminated radish plants are incubated for 6-7 days at about 18° C., under a humid atmosphere.
Grading is carried out 6 to 7 days after the contamination, in comparison with the control plants.

[2] = test system: Pyrenophora teres; assay: In vivo test on Pyrenophora teres (barley net blotch); details: Pyrenophora teres, 288 h; dose 330 ppm; barley plants sprayed 24 hours before contamination; grading 12 days after contamination vs control plants; read-out: protection (good (at least 50%) to total)
Procedure: In Vivo Test on Pyrenophora teres (Barley Net Blotch)
as §1
(§2) Barley plants (Express variety) in starter cups, sown on a 50/50 peat soil-pozzolana substrate and grown at 12° C., are treated at the 1-leaf stage (10 cm tall) by spraying with the aqueous suspension described above. Plants, used as controls, are treated with an aqueous solution not containing the active material.
After 24 hours, the plants are contaminated by spraying them with an aqueous suspension of Pyrenophora teres spores (12,000 spores per ml). The spores are collected from a 12-day-old culture The contaminated barley plants are incubated for 24 hours at about 20° C. and at 100% relative humidity, and then for 12 days at 80% relative humidity.

[3] = test system: Botrytis cinerea; assay: In vivo test on Botrytis cinerea (cucumber grey mould); details: Botrytis cinerea; dose 330 ppm; cucumber plants sprayed 24 hours before contamination; grading 5/7 days after contamination vs control plants; read-out: protection (good (at least 50%) to total)
Procedure: In Vivo Test on Botrytis cinerea (Cucumber Grey Mould)
as §1
as §2, with “Cucumber” for “Barley”, “(Marketer” for “(Express”, “18-20°” for “12°”, “cotyledon Z11” for “1-leaf”, “stage” for “stage (10 cm tall)”
After 24 hours, the plants are contaminated by depositing drops of an aqueous suspension of Botrytis cinerea spores (150,000 spores per ml) on upper surface of the leaves. The spores are collected from a 15-day-old culture and are suspended in a nutrient solution composed of: • 20 g/L of gelatin • 50 g/L of cane sugar • 2 g/L of NH4NO3 • 1 g/L of KH2PO4
The contaminated cucumber plants are settled for 5/7 days in a climatic room at 15-11° C. (day/night) and at 80% relative humidity.
Grading is carried out 5/7 days after the contamination, in comparison with the control plants. Under these conditions, good (at least 50%) to total protection is observed at a dose of 330 ppm with the following compounds :B-7, B-8, B-13, B-14, C-3, C-12, C-13, C-14, C-15, C-16, D-4, D-5, E-4, H-1, H-2, H-4, H-7, H-9, H-22, J-1, J-2, J-3, J-19, J-31, J-32, J-33, J-34, J-35, J-37, J-39, J-43, J-44, R-1, R-10, R-23, R-24, R-26, R-31, V-1, V-8.

Structure (SMILES)	pest or weed control at 330 ppm [1] [%]	pest or weed control at 330 ppm [2] [%]	pest or weed control at 330 ppm [3] [%]
Cc1ccoc1C(=O)NCCc1ncc(C(F)(F)F)cc1Cl [Compound A-3]	≥ 50	–	–
CS(=O)(=O)c1csc(C(=O)NCCc2ncc(C(F)(F)F)cc2Cl)c1Cl [Compound C-8]	≥ 50	–	–
O=C(NCCc1ncc(C(F)(F)F)cc1Cl)c1sccc1Br [Compound C-5]	≥ 50	≥ 50	–
Cn1ncc(C(=O)NCCc2ncc(C(F)(F)F)cc2Cl)c1Cl [Compound J-6]	≥ 50	–	–
Cc1nc(C(F)(F)F)ccc1C(=O)NCCc1ncc(C(F)(F)F)cc1Cl [Compound R-15]	≥ 50	≥ 50	–
O=C(NCCc1ncc(C(F)(F)F)cc1Cl)c1nc(Cl)ccc1Cl [Compound Q-2]	≥ 50	–	–
O=C(NCCc1ncc(Cl)cc1F)c1sccc1I [Compound C-15]	–	≥ 50	≥ 50
O=C(NCCc1ncc(C(F)(F)F)cc1Cl)c1ccnc(Cl)c1 [Compound S-5]	≥ 50	–	–
O=C(NCCc1ncc(C(F)(F)F)cc1Cl)c1cccnc1Oc1ccc(Cl)cc1 [Compound R-7]	≥ 50	–	–
O=C(NCCc1ccc(Cl)cn1)c1sccc1I [Compound C-17]	–	≥ 50	–
O=C(NCCc1ncc(C(F)(F)F)cc1Cl)c1cccnc1Sc1ccccc1 [Compound R-6]	≥ 50	–	–
O=C(NCCc1ncc(C(F)(F)F)cc1Cl)c1ncc(C(F)(F)F)cc1Cl [Compound Q-1]	≥ 50	–	–
O=C(NCCc1ncc(C(F)(F)F)cc1Cl)c1ccoc1 [Compound B-3]	–	≥ 50	–
O=C(NCCc1ncc(C(F)(F)F)cc1Cl)c1cc(-c2ccccc2)oc1C(F)(F)F [Compound B-10]	≥ 50	–	–
Cn1cc(C(=O)NCCc2ccc(Cl)cn2)c(C(F)F)n1 [Compound J-36]	≥ 50	≥ 50	–
Cc1cc(C(=O)NCCc2ncc(C(F)(F)F)cc2Cl)cc(Cl)n1 [Compound S-2]	≥ 50	≥ 50	–
Cc1oc(-c2ccccc2)cc1C(=O)NCCc1ncc(C(F)(F)F)cc1Cl [Compound B-5]	≥ 50	–	–
Cc1nc(CCNC(=O)c2sccc2I)c(Cl)cc1Cl [Compound C-21]	≥ 50	–	–
CC(C)(C)c1cc(C(=O)NCCc2ncc(C(F)(F)F)cc2Cl)n(Cc2ccccc2)n1 [Compound K-3]	≥ 50	–	–

Structure (SMILES)	pest or weed control at 330 ppm [1] [%]	pest or weed control at 330 ppm [2] [%]	pest or weed control at 330 ppm [3] [%]
Cn1cc(C(=O)NCCc2nc(F)c(Cl)cc2Cl)c(C(F)(F)F)n1 [Compound J-26]	≥ 50	≥ 50	–
O=C(NCCc1ncc(C(F)(F)F)cc1Cl)c1ccno1 [Compound N-1]	≥ 50	–	–
Cc1c(C(=O)NCCc2ncc(C(F)(F)F)cc2Cl)cnn1-c1ccc(F)cc1 [Compound J-7]	–	≥ 50	–
O=C(NCCc1ncc(C(F)(F)F)cc1Cl)c1cnn(-c2ccc([N+](=O)[O-])cc2)c1C(F)(F)F [Compound J-13]	≥ 50	–	–
O=C(NCCc1ncc(C(F)(F)F)cc1Cl)c1ccc(-c2ccccn2)s1 [Compound C-6]	≥ 50	–	–
Cc1cc(C(=O)NCCc2ncc(C(F)(F)F)cc2Cl)nn1C(C)(C)C [Compound I-1]	≥ 50	≥ 50	–
O=C(NCCc1ncc(C(F)(F)F)cc1Cl)c1cnn(-c2ccc(Cl)cc2)c1C(F)(F)F [Compound J-5]	≥ 50	–	–
O=C(c1sccc1I)N(CCc1ncc(C(F)(F)F)cc1Cl)C1CC1 [Compound C-20]	–	≥ 50	–
O=C(NCCc1nc(F)c(Cl)cc1Cl)c1sccc1I [Compound C-22]	–	≥ 50	–
Cc1nn(C)c(F)c1C(=O)N(CCc1ncc(C(F)(F)F)cc1Cl)C1CC1 [Compound J-52]	≥ 50	≥ 50	–
Cn1cc(C(=O)NCCc2ccc(C(F)(F)F)c(Cl)n2)c(C(F)(F)F)n1 [Compound J-24]	≥ 50	≥ 50	–
O=C(NCCc1ncc(Cl)cc1F)c1cccnc1Cl [Compound R-24]	≥ 50	–	≥ 50
O=C(NCCc1ncc(C(F)(F)F)cc1Cl)c1ccnn1-c1ccccc1 [Compound K-5]	≥ 50	–	–
COc1ccc(-n2ncc(C(=O)NCCc3ncc(C(F)(F)F)cc3Cl)c2C)cc1 [Compound J-8]	–	≥ 50	–
O=C(NCCc1nc(F)c(Cl)cc1F)c1sccc1I [Compound C-23]	≥ 50	≥ 50	–
O=C(NCCc1ncc(C(F)(F)F)cc1Cl)c1ncoc1-c1ccccc1 [Compound G-1]	≥ 50	≥ 50	–
O=C(NCCc1ncc(C(F)(F)F)cc1Cl)c1cc(-c2cccc(Cl)c2)oc1C(F)(F)F [Compound B-9]	≥ 50	–	–
O=C(c1ccoc1I)N(CCc1ncc(C(F)(F)F)cc1Cl)C1CC1 [Compound B-15]	–	≥ 50	–
O=C(NCCc1ncc(C(F)(F)F)cc1Cl)c1cc(-c2ccc(Cl)cc2)oc1C(F)(F)F [Compound B-2]	≥ 50	–	–

Structure (SMILES)	pest or weed control at 330 ppm [1] [%]	pest or weed control at 330 ppm [2] [%]	pest or weed control at 330 ppm [3] [%]
Cc1nn(-c2ccccc2)nc1C(=O)NCCc1ncc(C(F)(F)F)cc1Cl [Compound O-1]	≥ 50	–	–
Cc1nnsc1C(=O)NCCc1ncc(C(F)(F)F)cc1Cl [Compound P-1]	–	≥ 50	–
Cc1onc(-c2ccccc2Cl)c1C(=O)NCCc1ncc(C(F)(F)F)cc1Cl [Compound M-4]	≥ 50	≥ 50	–
CC(C)ON=CCc1cnc(CCNC(=O)c2cn(C)nc2C(F)F)c(Cl)c1 [Compound J-38]	≥ 50	–	–
O=C(NCCc1nc(Cl)ccc1Cl)c1sccc1I [Compound C-18]	≥ 50	–	–
Cc1cc(C(=O)NCCc2nc(C)c(Cl)cc2Cl)c(C)o1 [Compound B-16]	≥ 50	≥ 50	–
Cc1noc(C)c1C(=O)NCCc1ncc(C(F)(F)F)cc1Cl [Compound M-2]	≥ 50	–	–
Cn1cc(C(=O)N(CCc2ncc(C(F)(F)F)cc2Cl)C2CC2)c(C(F)(F)F)n1 [Compound J-23]	–	≥ 50	–
CCn1nc(C)c(Br)c1C(=O)NCCc1ncc(C(F)(F)F)cc1Cl [Compound K-6]	≥ 50	≥ 50	–
Cc1nc(CCNC(=O)c2cn(C)nc2C(F)(F)F)c(Cl)cc1Cl [Compound J-25]	≥ 50	≥ 50	–
CCCc1c(C(=O)NCCc2ncc(C(F)(F)F)cc2Cl)cnn1-c1ccc(Cl)cc1 [Compound J-12]	≥ 50	–	–
O=C(NCCc1ncc(C(F)(F)F)cc1Cl)c1cccnc1 [Compound R-5]	≥ 50	–	–
O=C(NCCc1ncc(C(F)(F)F)cc1Cl)c1cnn(-c2ccccc2)c1C(F)(F)F [Compound J-4]	≥ 50	–	–
Cc1nn(C)c(F)c1C(=O)NCCc1nc(Cl)c(Cl)cc1Cl [Compound J-50]	≥ 50	≥ 50	–
Cn1ccc(I)c1C(=O)NCCc1ncc(C(F)(F)F)cc1Cl [Compound F-3]	≥ 50	≥ 50	–
Cn1cc(C(=O)NCCc2ncc(C(F)(F)F)cc2Cl)c(C(F)(F)F)n1 [Compound J-54]	–	≥ 50	–
Cc1ccccc1-n1ncc(C(=O)NCCc2ncc(C(F)(F)F)cc2Cl)c1C [Compound J-10]	–	≥ 50	–
Cc1nn(C)c(F)c1C(=O)NCCc1ncc(Cl)cc1F [Compound J-49]	≥ 50	≥ 50	–
